Measurements from BindingDB's records for doi:10.1016/j.bmcl.2019.126932 (Japan Tobacco, 2020).

Experiments:
[1] = Inhibition of NS5A in Hepatitis C virus subtype 1a replicon infected in human HuH7 cells assessed as reduction in viral replication
[2] = Inhibition of NS5A in Hepatitis C virus subtype 1b replicon infected in human HuH7 cells assessed as reduction in viral replication
[3] = Inhibition of NS5A in Hepatitis C virus subtype 2a replicon infected in human HuH7 cells assessed as reduction in viral replication

EC50 [1] [nM] | EC50 [2] [nM] | EC50 [3] [nM] | SMILES
0.098 | 0.014 | – | COC(=O)N[C@@H](C(=O)N1CCC[C@H]1c1ncc(-c2ccc(-c3ccc(-c4cnc([C@@H]5CCCN5C(=O)[C@H](NC(=O)OC)c5ccccc5)[nH]4)cc3)cc2)[nH]1)c1ccccc1
> 10000 | > 10000 | – | COC(=O)N[C@@H](C(=O)N1CCC[C@H]1c1ncc[nH]1)c1ccccc1
2800 | 57 | – | COC(=O)N[C@@H](C(=O)N1CCC[C@H]1c1nc(-c2ccc(-c3ccccc3)cc2)c[nH]1)c1ccccc1
2800 | 0.34 | – | CCCC(=O)Nc1ccc(-c2ccc(-c3c[nH]c([C@@H]4CCCN4C(=O)[C@H](NC(=O)OC)c4ccccc4)n3)cc2)cc1
2400 | – | – | CCCC(=O)Nc1ccc(-c2ccc(-c3c[nH]c([C@@H]4CCCN4C(=O)[C@H](NC(=O)c4ccccc4)c4ccccc4)n3)cc2)cc1
1300 | – | – | CCCC(=O)Nc1ccc(-c2ccc(-c3c[nH]c([C@@H]4CCCN4C(=O)[C@H](NC(=O)CCCc4ccccc4)c4ccccc4)n3)cc2)cc1
642 | – | – | CCCC(=O)Nc1ccc(-c2ccc(-c3c[nH]c([C@@H]4CCCN4C(=O)[C@H](NC(=O)CCCCCCc4ccccc4)c4ccccc4)n3)cc2)cc1
56 | 0.15 | – | CCCC(=O)Nc1ccc(-c2ccc(-c3c[nH]c([C@@H]4CCCN4C(=O)[C@H](NC(=O)CCCNC(=O)OCc4ccccc4)c4ccccc4)n3)cc2)cc1
614 | – | – | CCCC(=O)Nc1ccc(-c2ccc(-c3c[nH]c([C@@H]4CCCN4C(=O)[C@H](NC(=O)c4ccccc4NC(=O)OCc4ccccc4)c4ccccc4)n3)cc2)cc1
44 | 0.076 | – | CCCC(=O)Nc1ccc(-c2ccc(-c3c[nH]c([C@@H]4CCCN4C(=O)[C@H](NC(=O)c4cccc(NC(=O)OCc5ccccc5)c4)c4ccccc4)n3)cc2)cc1
131 | – | – | CCCC(=O)Nc1ccc(-c2ccc(-c3c[nH]c([C@@H]4CCCN4C(=O)[C@H](NC(=O)c4ccc(NC(=O)OCc5ccccc5)cc4)c4ccccc4)n3)cc2)cc1
247 | – | – | CCCC(=O)Nc1ccc(-c2ccc(-c3c[nH]c([C@@H]4CCCN4C(=O)[C@H](NC(=O)N4CCC[C@H](NC(=O)OCc5ccccc5)C4)c4ccccc4)n3)cc2)cc1
100 | 0.023 | – | CCCC(=O)Nc1ccc(-c2ccc(-c3c[nH]c([C@@H]4CCCN4C(=O)[C@H](NC(=O)N4CCC[C@@H](NC(=O)OCc5ccccc5)C4)c4ccccc4)n3)cc2)cc1
82 | 0.037 | – | CCCC(=O)Nc1ccc(-c2ccc(-c3c[nH]c([C@@H]4CCCN4C(=O)[C@H](NC(=O)N4CC[C@H](NC(=O)OCc5ccccc5)C4)c4ccccc4)n3)cc2)cc1
1.1 | 0.0048 | – | CCCC(=O)Nc1ccc(-c2ccc(-c3c[nH]c([C@@H]4CCCN4C(=O)[C@H](NC(=O)N4CC[C@@H](NC(=O)OCc5ccccc5)C4)c4ccccc4)n3)cc2)cc1
353 | – | – | CCCC(=O)Nc1ccc(-c2ccc(-c3c[nH]c([C@@H]4CCCN4C(=O)[C@H](NC(=O)N4CCCC4)c4ccccc4)n3)cc2)cc1
353 | 0.043 | – | CCCC(=O)Nc1ccc(-c2ccc(-c3c[nH]c([C@@H]4CCCN4C(=O)[C@H](NC(=O)N4CC[C@@H](NC(=O)OC)C4)c4ccccc4)n3)cc2)cc1
34 | 0.025 | – | O=C(CCCNC(=O)OCc1ccccc1)N[C@@H](C(=O)N1CCC[C@H]1c1nc(-c2ccc(-c3ccc(NC(=O)c4ccccc4)cc3)cc2)c[nH]1)c1ccccc1
3.5 | 0.0042 | – | COCc1ccc(C(=O)Nc2ccc(-c3ccc(-c4c[nH]c([C@@H]5CCCN5C(=O)[C@H](NC(=O)CCCNC(=O)OCc5ccccc5)c5ccccc5)n4)cc3)cc2)cc1
8.1 | 0.0049 | – | COC1CCC(C(=O)Nc2ccc(-c3ccc(-c4c[nH]c([C@@H]5CCCN5C(=O)[C@H](NC(=O)CCCNC(=O)OCc5ccccc5)c5ccccc5)n4)cc3)cc2)CC1 (stereo partly drawn)
2.3 | 0.02 | – | COC1CCN(C(=O)Nc2ccc(-c3ccc(-c4c[nH]c([C@@H]5CCCN5C(=O)[C@H](NC(=O)CCCNC(=O)OCc5ccccc5)c5ccccc5)n4)cc3)cc2)CC1
0.039 | 0.028 | 0.018 | COC1CCN(C(=O)Nc2ccc(-c3ccc(-c4c[nH]c([C@@H]5CCCN5C(=O)[C@H](NC(=O)N5CC[C@@H](NC(=O)OCc6ccccc6)C5)c5ccccc5)n4)cc3)cc2)CC1
